We go through four compounds from patent US5142046A, “Optically active pyridobenzoxazine derivatives and intermediates thereof” (Daiichi Pharmaceutical Co., Ltd., priority 1985, dated 1992).

Values after ≈ are worked out from the molar mass of the structure shown.

The LD50 is the dose expected to kill half of the subjects tested. Lower therefore signals greater toxicity.

The nature of one series: in vivo. Particulars: mouse, iv.
Another series concerns male mice. The series can be described thus: acute intravenous toxicity in male mice. Particulars: for Day after treatment 1 (number of mice dead) / Day after treatment 2 (number of mice dead) / Day after treatment 3 (number of mice dead) / Mortality: i.v.; for Day after treatment 1 (number of mice dead) / Day after treatment 2 (number of mice dead) / Day after treatment 3 (number of mice dead): 5 male mice; for Day after treatment 1 (number of mice dead): day 1; for Day after treatment 2 (number of mice dead): day 2; for Day after treatment 3 (number of mice dead): day 3; for Mortality: male mice; for acute toxicity (LD50) compared with racemate, in words: mice, intravenous, relative to (±)-compound.

The next series concerns E. coli, NIHJ. The series can be described thus: Minimum Inhibitory Concentration (MIC), standard method of The Japan Society of Chemotherapy. The following applies: Escherichia coli, read-out: Minimum Inhibitory Concentration (MIC).
For another series, the system named is K. pneumoniae, Type 2. Described as above. Particulars: Klebsiella pneumoniae, TYPE2, read-out: Minimum Inhibitory Concentration (MIC).
In another series the test system is Ser. marcescens, 10100. Described as above. The following applies: Serratia marcescens, 10100, read-out: Minimum Inhibitory Concentration (MIC).
A further series concerns Ps. aeruginosa, 32104. Described as above. Particulars: Pseudomonas aeruginosa, 32104, read-out: Minimum Inhibitory Concentration (MIC).
The subject of another series is Ps. aeruginosa, 32121. Described as above. The following applies: Pseudomonas aeruginosa, 32121, read-out: Minimum Inhibitory Concentration (MIC).
The next series relates to Ps. maltophilia, IID1275. Described as above. Particulars: Stenotrophomonas maltophilia, IID1275, read-out: Minimum Inhibitory Concentration (MIC).
The test system of a further series is S. aureaus, Smith. The description is as above. Particulars: read-out: Minimum Inhibitory Concentration (MIC).
For a further series, the system named is S. aureaus, 209P. The description is as above. The following applies: read-out: Minimum Inhibitory Concentration (MIC).
In another series the test system is Str. pyogenes, G-36. The series is described as above. Particulars: Streptococcus pyogenes, G36, read-out: Minimum Inhibitory Concentration (MIC).
The test system of another series is various microorganisms. As to the kind of experiment: antimicrobial activity compared with racemic Ofloxacin (summary). The format is cell-based. The following applies: relative to (±)-compound.

Excerpt for E. coli, NIHJ: (§1) The test method was in accordance with the standard method specified by The Japan Society of Chemotherapy.
Excerpt for K. pneumoniae, Type 2: as §1
Excerpt for Ps. aeruginosa, 32104: as §1
Excerpt for Ps. aeruginosa, 32121: as §1
Excerpt for Ps. maltophilia, IID1275: as §1
Excerpt for S. aureaus, 209P: as §1
Excerpt for S. aureaus, Smith: as §1
Excerpt for Ser. marcescens, 10100: as §1
Excerpt for Str. pyogenes, G-36: as §1

In the series “in vivo”, `CC1COc2c(N3CCN(C)CC3)c(F)cc3c(=O)c(C(=O)O)cn1c23` (racemic) [Racemic Ofloxacin, (±)-9-fluoro-3-methyl-10-(4-methyl-1-piperazinyl)-7-oxo-2,3-dihydro-7H-pyrido[1,2,3-de][1,4]-benzoxazine-6-carboxylic acid, reference compound] gave a 50% lethal dose (LD50) of 203 mg/kg. The “Day after treatment 1 (number of mice dead)” value turned out to be 0 in the series on male mice (100 mg/kg), 2 in the series on male mice (200 mg/kg) and 5 in the series with male mice (400 mg/kg). Besides, the “Day after treatment 2 (number of mice dead)” value with male mice (100 mg/kg), in the series with male mice (200 mg/kg) and with male mice (400 mg/kg) was 0 throughout. For the same compound, the “Day after treatment 3 (number of mice dead)” value in the series with male mice (100 mg/kg), in the series on male mice (200 mg/kg) and with male mice (400 mg/kg) was 0 throughout. In addition, the Mortality was 0/5 with male mice (100 mg/kg), 2/5 in the series with male mice (200 mg/kg) and 5/5 in the series on male mice (400 mg/kg). The MIC in the series with E. coli, NIHJ is less than 0.1 µg/mL; in the series with K. pneumoniae, Type 2, 0.1 µg/mL (≈ 0.277 µM); in the series with Ser. marcescens, 10100, 0.1 µg/mL (≈ 0.277 µM); with Ps. aeruginosa, 32104, 0.78 µg/mL (≈ 2.16 µM); in the series on Ps. aeruginosa, 32121 it was 0.2 µg/mL (≈ 0.553 µM); in the series with Ps. maltophilia, IID1275 it was 0.78 µg/mL (≈ 2.16 µM). In addition, the MIC stood at 0.2 µg/mL (≈ 0.553 µM) with S. aureaus, Smith; 0.39 µg/mL (≈ 1.08 µM) in the series with S. aureaus, 209P; 1.56 µg/mL (≈ 4.32 µM) with Str. pyogenes, G-36.
`CCN1CCN(c2c(F)cc3c(=O)c(C(=O)O)cn4c3c2OC[C@@H]4C)CC1` [Example 17, (S)-(-)-9-Fluoro-3-Methyl-10-(4-Ethyl-1-Piperazinyl)-7-Oxo-2,3-Dihydro-7H-Pyrido[1,2,3-de][1,4]Benzoxazine-6-Carboxylic Acid]: the MIC with E. coli, NIHJ is less than 0.1 µg/mL; in the series with K. pneumoniae, Type 2, less than 0.1 µg/mL; in the series on Ser. marcescens, 10100, less than 0.1 µg/mL; in the series with Ps. aeruginosa, 32104, 0.39 µg/mL (≈ 1.04 µM); with Ps. aeruginosa, 32121, 0.1 µg/mL (≈ 0.266 µM); in the series with Ps. maltophilia, IID1275, 0.1 µg/mL (≈ 0.266 µM). Besides, the MIC is less than 0.1 µg/mL in the series on S. aureaus, Smith; 0.1 µg/mL (≈ 0.266 µM) in the series with S. aureaus, 209P; 1.56 µg/mL (≈ 4.16 µM) with Str. pyogenes, G-36.
Take `C[C@@H]1COc2c(N3CCN(C)CC3)c(F)cc3c(=O)c(C(=O)O)cn1c23` [R(+)-Ofloxacin]: the “Day after treatment 1 (number of mice dead)” value in the series with male mice (100 mg/kg) is recorded as 0; in the series on male mice (200 mg/kg), 3; with male mice (400 mg/kg), 5. The “Day after treatment 2 (number of mice dead)” value with male mice (100 mg/kg), in the series on male mice (200 mg/kg) and with male mice (400 mg/kg) was 0 throughout. Besides, the “Day after treatment 3 (number of mice dead)” value with male mice (100 mg/kg), in the series with male mice (200 mg/kg) and with male mice (400 mg/kg) was 0 throughout. Moreover, the Mortality with male mice (100 mg/kg) is on record as 0/5; in the series on male mice (200 mg/kg) it was 3/5; with male mice (400 mg/kg), 5/5. Further, the “acute toxicity (LD50) compared with racemate, in words” value in the series with male mice was “substantially equal to that of the (±)-compound”. The MIC in the series on E. coli, NIHJ worked out at 0.39 µg/mL (≈ 1.08 µM); with K. pneumoniae, Type 2 it was 1.56 µg/mL (≈ 4.32 µM); in the series with Ser. marcescens, 10100, 1.56 µg/mL (≈ 4.32 µM); in the series on Ps. aeruginosa, 32104, 12.5 µg/mL (≈ 34.6 µM); in the series on Ps. aeruginosa, 32121 it was 6.25 µg/mL (≈ 17.3 µM); in the series with Ps. maltophilia, IID1275 it was 12.5 µg/mL (≈ 34.6 µM). The MIC was 6.25 µg/mL (≈ 17.3 µM) in the series with S. aureaus, Smith; 25 µg/mL (≈ 69.2 µM) with S. aureaus, 209P; less than 100 µg/mL in the series on Str. pyogenes, G-36.
Take `C[C@H]1COc2c(N3CCN(C)CC3)c(F)cc3c(=O)c(C(=O)O)cn1c23` [S(-)-Ofloxacin, S-(-)-9-Fluoro-3-Methyl-10-(4-Methyl-1-Piperazinyl)-7-oxo-2,3-Dihydro-7H-Pyrido[1,2,3-de][1,4]Benzoxazine-6-Carboxylic Acid]: the “antimicrobial activity, times higher than that of the (±)-compound” value in the series on various microorganisms was “about 2 times”. This compound also yielded an LD50 in the series on male mice (i.v. in mice) of 244 mg/kg. Also, the “Day after treatment 1 (number of mice dead)” value in the series on male mice (100 mg/kg) was 0; in the series on male mice (200 mg/kg), 0; with male mice (400 mg/kg) it was 5. The “Day after treatment 2 (number of mice dead)” value with male mice (100 mg/kg), with male mice (200 mg/kg) and in the series with male mice (400 mg/kg) was 0 in each case. In addition, the “Day after treatment 3 (number of mice dead)” value in the series on male mice (100 mg/kg), with male mice (200 mg/kg) and with male mice (400 mg/kg) was 0 each time. In addition, the values for the Mortality with male mice (100 mg/kg), with male mice (200 mg/kg) and in the series with male mice (400 mg/kg) were 0/5, 0/5 and 5/5, respectively. For the same compound, in the series with male mice, the “acute toxicity (LD50) compared with racemate, in words” value was “weaker”. Also, the MIC in the series on E. coli, NIHJ was less than 0.1 µg/mL; with K. pneumoniae, Type 2 it was less than 0.1 µg/mL; in the series on Ser. marcescens, 10100, less than 0.1 µg/mL; with Ps. aeruginosa, 32104, 0.39 µg/mL (≈ 1.08 µM); in the series with Ps. aeruginosa, 32121, 0.1 µg/mL (≈ 0.277 µM); with Ps. maltophilia, IID1275, 0.39 µg/mL (≈ 1.08 µM). The MIC in the series with S. aureaus, Smith is 0.1 µg/mL (≈ 0.277 µM); in the series with S. aureaus, 209P, 0.2 µg/mL (≈ 0.553 µM); in the series with Str. pyogenes, G-36 it was 0.78 µg/mL (≈ 2.16 µM).
